In patent US11684599B2, “Very-long-chain polyunsaturated fatty acids, elovanoid hydroxylated derivatives, and methods of use” (Board of Supervisors of Louisiana State University and …, priority 2017, dated 2023):

Tests used:
[1] = test system: ARPE-19 cells; experiment: UOS-induced apoptosis in ARPE-19 cells (Hoechst-positive pyknotic cells); format: cell-based, human; conditions: for protection against UOS: free fatty acids, ARPE-19 cells; for UOS-induced apoptotic cell death: concentration-dependent 50-500 nM, highest inhibition at 500 nM, lowest at 50 nM; for UOS-induced apoptosis: 200 nM
Method: FIGS. 6A and 6B depicts immunostaining of primary human RPE cells using specific markers ZO-1 (Zona occludens-1), RPE65, MITF (Micro-ophtalmia-associated Transcription Factor) and β-catenin, as well as light microscopy depicting primary human RPE cell morphology at different passages in culture. ARPE-19 cells were grown and maintained in T-75 mM flasks in DMEM F-12 medium containing 10% FBS and incubated at 37° C. with a constant supply of 5% CO2. Cells at 75-80% confluence (72 h growth in DMEM/F12+10% FBS) in 6-well plates were serum-starved for 8 h before exposure. The serum-starved cells were treated with TNF-α (Sigma-Aldrich, St. Louis, Mo.) (10 ng/ml) and H2O2 (600 μM) to induce oxidative stress and challenged with increasing concentrations (50-500 nM) of VLC-PUFA (C32:6n3 and C34:6n3) simultaneously with oxidative stress for 16 h (apoptosis) and 6 h (Western-blot) before detection of apoptosis and harvesting for protein analysis. In some experiments, DHA at a concentration of 100 nM and 15-LOX-1 inhibitor PD146176 at a concentration of 1 μM was added to treat the RPE cells under stress. Cell extracts were made and protein concentrations adjusted by Bio-Rad (Hercules, Calif.) protein reagent and used for Western blot analysis. To assess cell death, hRPE and ARPE-19 cells were fixed with methanol for 15 mins, washed with 1×PBS then loaded with 2 μM Hoechst dissolved in a Locke's solution (Promega) and incubated for another 15 mins before imaging. Cells were then viewed by using a Zeiss LSM 510 confocal microscope under UV fluorescence. Images were recorded and cell apoptosis was assessed by using an automated unbiased method.

[2] = test system: ARPE-19 cells under UOS; experiment: Western blot of pro-survival and pro-apoptotic proteins in RPE cells under UOS; format: cell-based, human; conditions: for pro-apoptotic protein Bax / pro-apoptotic protein Bid / pro-apoptotic protein Bim: ARPE-19 cells under UOS; for SIRT1 expression: RPE under UOS; for Prohibitin (type-1) expression: concentration-dependent (100 and 250 nM); for Sirtuin1 (SIRT1) expression: dose-dependent, 100-200 nM
Method: ARPE19 cells at 75-80% confluence (72 h growth in DMEM/F12+10% FBS) in 6-well plates were serum-starved for 8 h before exposure. The serum-starved cells were treated with TNF-α (Sigma-Aldrich, St. Louis, Mo.) (10 ng/ml) and H2O2 (600 μM) to induce oxidative stress and challenged with increasing concentrations (50-500 nM) of VLC-PUFA (C32:6n3 and C34:6n3) simultaneously with oxidative stress for 16 h (apoptosis) and 6 h (Western-blot) before detection of apoptosis and harvesting for protein analysis. In some experiments, DHA at a concentration of 100 nM and 15-LOX-1 inhibitor PD146176 at a concentration of 1 μM was added to treat the RPE cells under stress. Cell extracts were made and protein concentrations adjusted by Bio-Rad (Hercules, Calif.) protein reagent and used for Western blot analysis.
Bcl-2 family proteins, SIRT1 and Proinhibitin (type-1), and Iduna proteins were analyze by Western blot analysis. In brief, 20-25 μg equivalents of each cell extracts were subject to electrophoresis on a 4-12% gel (Promega) at 125 V for 2 h. The proteins were transferred to nitrocellulose membrane by I-blot transfer apparatus. The membranes were subjected to treatment with primary antibodies specific for Bcl-2, Bcl-xL, Bax, Bid, Bim, SIRT1 and Prohibitin (type-1) (Santa Cruz Biotechnology) and Iduna antibody (Neuro-Mab Lab, UCLA, Los Angeles, Calif.) overnight at 4° C. and probed for 45 mins with secondary antibody, goat anti-mouse Ig:horseradish peroxidase, and horseradish peroxidase-conjugated anti-biotin antibody, and then proteins were evaluated by using an ECL kit (Amersham).

| Compound | protection against UOS [1] | anti-apoptotic protein Bcl-2 ([2]; RPE cells under UOS) | anti-apoptotic protein Bcl-xL ([2]; RPE cells under UOS) | pro-apoptotic protein Bax ([2]; VLC-PUFA) | pro-apoptotic protein Bid ([2]; VLC-PUFA) | pro-apoptotic protein Bim ([2]; VLC-PUFA) | Iduna expression ([2]; VLC-PUFA, RPE cells under UOS) | SIRT1 expression ([2]; VLC-PUFA) | Prohibitin (type-1) expression ([2]; VLC-PUFA) | UOS-induced apoptotic cell death [1] | UOS-induced apoptosis [1] | Iduna expression ([2]; 200 nM) | relative potency in upregulating SIRT1 ([2]; ELV-N32-Na versus ELV-N34-Na) | Sirtuin1 (SIRT1) expression [2] |
| --- | --- | --- | --- | --- | --- | --- | --- | --- | --- | --- | --- | --- | --- | --- |
| CC/C=C\C/C=C\C/C=C\C/C=C\C/C=C\C/C=C\CCCCCCCCCCCCCCC(=O)O [34:6n3, (16Z,19Z,22Z,25Z,28Z,31Z)-tetratriaconta-16,19,22,25,28,31-hexaenoic acid] | elicit protection against UOS | upregulate | upregulate | down regulated | down regulated | down regulated | upregulation | upregulation | upregulation |  |  |  |  |  |
| CC/C=C\C/C=C\C/C=C\C/C=C\C/C=C\C/C=C\CCCCCCCCCCCCC(=O)O [32:6n3, (14Z,17Z,20Z,23Z,26Z,29Z)-dotriaconta-14,17,20,23,26,29-hexaenoic acid] | elicit protection against UOS | upregulate | upregulate | down regulated | down regulated | down regulated | upregulation | upregulation | upregulation |  |  |  |  |  |
| CC/C=C\C[C@H](O)\C=C/C=C/C=C/[C@H](O)C/C=C\C/C=C\CCCCCCCCCCCCCCC(=O)OC [ELV-N34-Me, methyl (16Z,19Z,22R,23E,25E,27Z,29S,31Z)-22,29-dihydroxytetratriaconta-16,19,23,25,27,31-hexaenoate] |  |  |  |  |  |  |  |  |  | attenuated |  |  |  |  |
| CC/C=C\C[C@H](O)\C=C/C=C/C=C/[C@H](O)C/C=C\C/C=C\CCCCCCCCCCCCC(=O)[O-].[Na+] [ELV-N32-Na, sodium (14Z,17Z,20R,21E,23E,25Z,27S,29Z)-20,27-dihydroxydotriaconta-14,17,21,23,25,29-hexaenoate] |  | enhanced the abundance | enhanced the abundance |  |  |  |  |  |  | attenuated | attenuation of apoptosis | enhanced Iduna expression | more potent than ELV-N34-Na | upregulate |
| CC/C=C\C[C@H](O)\C=C/C=C/C=C/[C@H](O)C/C=C\C/C=C\CCCCCCCCCCCCCCC(=O)[O-].[Na+] [ELV-N34-Na, sodium (16Z,19Z,22R,23E,25E,27Z,29S,31Z)-22,29-dihydroxytetratriaconta-16,19,23,25,27,31-hexaenoate] |  | enhanced the abundance | enhanced the abundance |  |  |  |  |  |  |  | attenuation of apoptosis | enhanced Iduna expression |  | upregulate |
